# Reference: paper PMC5278707, “Structure-Activity Relationships of a Series of Echinocandins and the Discovery of CD101, a Highly Stable and Soluble Echinocandin with Distinctive Pharmacokinetic Properties” (Antimicrobial Agents and Chemotherapy, 2017)
# Where two headings read alike, the source gives them in different places. *1 amine or outer side, *2 acyl side, *3 side chain or, on linkers, in order; H or OH if unused. Where a SMILES comes first, the peptide text is derived from it. Bridges are numbered along the chain shown (N, C = ends). [ ]: non-standard residue; d: D form. The star is where a group is joined. Orn(4R-OH,5R-OCH2CH2NMe3+) = C[N+](C)(C)CCO[C@@H](N[*:3])[C@H](O)C[C@H](N[*:1])C(=O)[*:2]; pTerphenylCO(4''-OnC5H11) = CCCCCOc1ccc(-c2ccc(-c3ccc(C(=O)*)cc3)cc2)cc1; hTyr(3S-OH,4S-OH) = N[C@H](C(=O)O)[C@H](O)[C@@H](O)c1ccc(O)cc1; Pro(3S-OH,4S-Me) = C[C@H]1CN[C@H](C(=O)O)[C@H]1O; Hyp = O=C(O)[C@@H]1C[C@@H](O)CN1
# Tests used:
# [1] = humans, clinical trials ref 22; cited from earlier work
# [2] = single-dose pharmacokinetics in beagle dogs; conditions: male, dog, in vivo, iv, beagle dogs, single i.v. 1.4 mg/kg, 10-min slow bolus
# Method: Four male, nonnaive beagle dogs received a single i.v. infusion (1.4 mg/kg) of test article over 10 min via a catheter placed in the cephalic vein. Blood draws (1.0 ml) were taken at 0.083, 0.33, 0.75, 1.5, 4.5, 12, 24, and 48 h. An additional blood draw at 72 h was obtained for CD101. Blood draws were taken from the jugular vein and were collected into K3 EDTA tubes. Following blood collection, the samples were immediately inverted several times and were held on wet ice pending centrifugation. The samples were centrifuged within ∼30 min of collection under refrigeration (∼5°C for ∼10 min at ∼2,000 g) to obtain plasma. The plasma samples were frozen immediately on dry ice after separation and were stored at approximately −70°C until analysis. Levels of test article in the plasma samples were measured by quantitative liquid chromatography-tandem mass spectrometry (LC-MS/MS) analysis compared to a calibration curve and an internal standard. Pharmacokinetic parameters were calculated from the plasma concentration-time data using standard noncompartmental methods and utilizing WinNonlin analysis software.
# [3] = test system: Candida lusitaniae ATCC 34134; experiment: CLSI broth microdilution (M27-A3) MIC; assay type: cell-based; conditions: Clavispora lusitaniae, ATCC34134, 50% reduction in growth, read-out: MIC
# Method: (§1) All yeast and mold isolates were obtained from the American Type Culture Collection (ATCC). Isolates were plated on an agar medium to verify purity, and single colonies were picked. Aspergillus isolates were resubcultured on potato dextrose slants and incubated for 7 days at 35°C. Candida isolates were streaked on SDA plates and incubated for 24 h at 35°C. RPMI 1640 medium (HyClone Laboratories, Logan, UT) and the inoculum for each organism were prepared according to Clinical and Laboratory Standards Institute (CLSI) guidelines ([27][–][29]). Stock solutions for all test articles were prepared in 100% dimethyl sulfoxide (DMSO). Susceptibility testing was performed using CLSI broth microdilution methods for Candida (M27-A3) and Aspergillus (M38-A2). Amphotericin B was tested at a range of 0.06 to 64 μg/ml; all other antifungal agents were tested at 0.015 to 16 μg/ml. Plates were incubated at 35°C and were read from the bottom using a plate viewer after 24 and 48 h for Candida and after 48 h for Aspergillus. MIC values are reported as the lowest drug concentration to yield a 50% reduction in the growth of Candida species tested compared to the control well. Minimum effective concentration (MEC) values are reported as the lowest drug concentration to yield the stunted hyphal growth of Aspergillus species tested compared to that of the control well.
# [4] = test system: Candida parapsilosis ATCC 22019; experiment: CLSI broth microdilution (M27-A3) MIC; assay type: cell-based; conditions: Lodderomyces parapsilosis, ATCC22019, 50% reduction in growth
# Method: as §1
# [5] = test system: Candida tropicalis ATCC 90874; experiment: CLSI broth microdilution (M27-A3) MIC; assay type: cell-based; conditions: 50% reduction in growth
# Method: as §1
# [6] = test system: Candida glabrata ATCC 90030; experiment: CLSI broth microdilution (M27-A3) MIC; assay type: cell-based; conditions: Nakaseomyces glabratus, ATCC90030, 50% reduction in growth, read-out: MIC
# Method: as §1
# [7] = test system: Candida guilliermondii ATCC 34134; experiment: CLSI broth microdilution (M27-A3) MIC; assay type: cell-based; conditions: Meyerozyma guilliermondii, ATCC34134, 50% reduction in growth
# Method: as §1
# [8] = test system: Candida albicans ATCC 90028; experiment: CLSI broth microdilution (M27-A3) MIC; assay type: cell-based; conditions: 50% reduction in growth
# Method: as §1
# [9] = test system: Candida krusei ATCC 14243; experiment: CLSI broth microdilution (M27-A3) MIC; assay type: cell-based; conditions: Pichia kudriavzevii, ATCC14243, 50% reduction in growth
# Method: as §1
# [10] = test system: Aspergillus clavatus ATCC 10058; experiment: CLSI broth microdilution (M38-A2) MEC/MIC; assay type: cell-based; conditions: read at 68 h, stunted hyphal growth
# Method: as §1, with “Plates were incubated at 35°C and were read from the bottom using a plate viewer after 24 and 48 h for Candida and after 48 h for Aspergillus.” left out
# [11] = test system: Aspergillus fumigatus ATCC MYA-3626; experiment: CLSI broth microdilution (M38-A2) MEC/MIC; assay type: cell-based; conditions: 48 h, stunted hyphal growth
# Method: as §1
# [12] = test system: Aspergillus candidus ATCC 13686; experiment: CLSI broth microdilution (M38-A2) MEC/MIC; assay type: cell-based; conditions: 48 h, stunted hyphal growth
# Method: as §1
# [13] = test system: Aspergillus ochraceus ATCC 96919; experiment: CLSI broth microdilution (M38-A2) MEC/MIC; assay type: cell-based; conditions: 48 h, stunted hyphal growth
# Method: as §1
# [14] = test system: Aspergillus niger ATCC 16888; experiment: CLSI broth microdilution (M38-A2) MEC/MIC; assay type: cell-based; conditions: 48 h, stunted hyphal growth
# Method: as §1
# [15] = test system: Aspergillus fumigatus ATCC 204305; experiment: CLSI broth microdilution (M38-A2) MEC/MIC; assay type: cell-based; conditions: 48 h, stunted hyphal growth
# Method: as §1
# [16] = test system: Aspergillus flavus ATCC 22546; experiment: CLSI broth microdilution (M38-A2) MEC/MIC; assay type: cell-based; conditions: 48 h, stunted hyphal growth
# Method: as §1
# Aspergillus spp. = experiment: CLSI broth microdilution (M38-A2) MEC, whole panel; assay type: cell-based; conditions: 48 h, summary of Table 3
# Method: as §1
# Candida albicans R303 = experiment: mouse model of disseminated candidiasis, fungal burden in kidneys; assay type: in vivo; conditions: kidneys at 24 h
# Method: Candida albicans R303 was grown on Sabouraud dextrose agar (SDA) plates for 24 h at 35°C. Colonies were transferred to phosphate-buffered saline (PBS) and diluted to 3.8 × 10^5 CFU/ml. Female CD-1 mice (Charles River Laboratories, Portage, MI) were rendered neutropenic via injection with cyclophosphamide (150 mg/kg) 5 days and 2 days prior to inoculation. Each animal was infected by injecting 0.1 ml of inoculum into the tail vein. In the treatment groups, animals received 0.5, 1.5, or 4.5 mg/kg of test article 2 h after inoculation. Two groups of untreated, infected controls were used to evaluate fungal burden: at 2 h when test articles were administered in the treatment groups and at 24 h when the treatment groups were sacrificed. Kidneys were harvested at 2 h in one untreated control group and at 24 h in all other groups. The kidneys were homogenized in 2 ml of sterile phosphate-buffered saline, and 0.1-ml aliquots were spread on SDA plates and incubated at 35°C overnight. Fungal burden was determined based on the log10 C. albicans CFU counts from paired kidneys. Data were analyzed using a one-way analysis of variance (ANOVA) and the Dunnett multiple comparisons test comparing the test articles to the infected control group (GraphPad InStat version 3.1; GraphPad Software, San Diego, CA).
compound,measurement,setting,value
"CCCCCOc1ccc(-c2ccc(-c3ccc(C(=O)N[C@H]4C[C@@H](O)[C@@H](OCC[N+](C)(C)C)NC(=O)[C@@H]5[C@@H](O)[C@@H](C)CN5C(=O)[C@H]([C@@H](C)O)NC(=O)[C@H]([C@H](O)[C@@H](O)c5ccc(O)cc5)NC(=O)[C@@H]5C[C@@H](O)CN5C(=O)[C@H]([C@@H](C)O)NC4=O)cc3)cc2)cc1 [CD101] ({pTerphenylCO(4''-OnC5H11)}-[Orn(4R-OH,5R-OCH2CH2NMe3+)]T[Hyp][hTyr(3S-OH,4S-OH)]T[Pro(3S-OH,4S-Me)]; lactam 1-C)",half-life in clinical trials,[1],> 80 h
same,clearance,[2],0.317 mL/min/kg
same,Vd,[2]; read-out: V (volume of distribution),1.36 L/kg
same,half-life,[2]; read-out: t1/2 (converted),53.1 h
same,MIC,[3]; 24 h,0.25 µg/mL
same,MIC,[3]; 48 h,0.25 µg/mL
same,MIC,[4]; 24 h,0.5 µg/mL
same,MIC,[4]; 48 h,1 µg/mL
same,MIC,"[5]; ATCC90874, 24 h",≤ 0.015 µg/mL
same,MIC,"[5]; ATCC90874, 48 h",≤ 0.015 µg/mL
same,MIC,[6]; 24 h,0.03 µg/mL
same,MIC,[6]; 48 h,0.03 µg/mL
same,MIC,[7]; 24 h,0.5 µg/mL
same,MIC,[7]; 48 h,2 µg/mL
same,MIC,"[8]; ATCC90028, 24 h",0.03 µg/mL
same,MIC,"[8]; ATCC90028, 48 h",0.03 µg/mL
same,MIC,[9]; 24 h,0.03 µg/mL
same,MIC,[9]; 48 h,0.03 µg/mL
same,MEC,[10],0.03 µg/mL
same,MEC,[11],≤0.015 µg/mL
same,MEC,[12],≤0.015 µg/mL
same,MEC,[13],0.03 µg/mL
same,MEC,[14],≤0.015 µg/mL
same,MEC,[15],≤0.015 µg/mL
same,MEC,[16],≤0.015 µg/mL
same,MEC values against all Aspergillus species tested,Aspergillus spp.,below 0.03 μg/ml
same,reductions in fungal burden vs infected control (statistical significance),"Candida albicans R303; neutropenic CD-1 mice, 0.5, 1.5 or 4.5 mg/kg 2 h after inoculation",statistically significant (P < 0.01) reductions in fungal burden at all doses
same,fungal burden relative to limit of detection,"Candida albicans R303; neutropenic CD-1 mice, 0.5, 1.5 or 4.5 mg/kg",below the limit of detection for at least one of the doses
